Assay results: EP3409761B1, “CULTURE MEDIUM COMPOSITION, AND METHOD FOR CULTURING CELL OR TISSUE USING SAID COMPOSITION” (Nissan Chemical Corporation, priority 2012, dated 2014)

How the values were obtained:
Type in all cases: cell-based
[1] = tested on: human lung cancer cell line A549; experiment: Effect of Gefitinib on proliferation of A549 cell stimulated with human HB-EGF; details: DAG 0.015%, day 6
Protocol: This aqueous solution was sterilized at 121°C for 20 min in an autoclave. […] Each plate was cultured by being stood still in a CO2 incubator (37°C, 5% CO2). […] To the culture medium on day 6 was added an ATP reagent (150 µL) (CellTiter-Glo (registered trade mark) Luminescent Cell Viability Assay, manufactured by Promega) to give a suspension, which was stood for about 10 min at room temperature, and the luminescence intensity (RLU value) was measured by FlexStation3 (manufactured by Molecular Devices), and the number of viable cells was measured by subtracting the luminescence value of the medium alone.

[2] = tested on: human cervical cancer cell line HeLa; experiment: HeLa cell proliferation test using Trametinib and MK-2206; details: day 4 of the static culture
Protocol: (§1) This aqueous solution was sterilized at 121°C for 20 min in an autoclave. […] Each plate was cultured by being stood still in a CO2 incubator (37°C, 5% CO2). […] The anticancer drugs used were Trametinib (manufactured by Santa Cruz, MEK inhibitor) and MK-2206 (manufactured by Santa Cruz, Akt inhibitor). […]

[3] = tested on: human lung cancer cell line A549; experiment: A549 cell proliferation test using Trametinib and MK-2206; details: day 4 of the static culture
Protocol: as §1

[4] = tested on: human cervical cancer cell line HeLa; experiment: Comparison with single layer culture method in cell proliferation test using anticancer drug; details: day 4
Protocol: This aqueous solution was sterilized at 121°C for 20 min in an autoclave. […] Each plate was cultured by being stood still in a CO2 incubator (37°C, 5% CO2). […] The anticancer drug used was Adriamycin (manufactured by WAKO), Paclitaxel (manufactured by WAKO) or Mitomycin C (manufactured by WAKO). To the culture medium on day 4 was added an ATP reagent (150 µL) (CellTiter-Glo (registered trade mark) Luminescent Cell Viability Assay, manufactured by Promega) to give a suspension, which was stood for about 10 min at room temperature, and the luminescence intensity (RLU value) was measured by FlexStation3 (manufactured by Molecular Devices), and the number of viable cells was measured by subtracting the luminescence value of the medium alone. For WST-8 measurement, a WST-8 solution (manufactured by DOJINDO Laboratories, 15 µL) was added, the mixture was incubated at 37°C for 100 min, the absorbance at 450 nm was measured by an absorbance spectrometer (manufactured by Molecular Devices, SPECTRA MAX 190), and the number of viable cells was measured by subtracting the absorbance of the medium alone.

[5] = tested on: human cervical cancer cell line HeLa; experiment: Cell proliferation test using various anticancer drugs; details: DAG 0.030% medium; for cell density: 5 days later
Protocol: This aqueous solution was sterilized at 121°C for 20 min in an autoclave. […] The anticancer drug used was Adriamycin (manufactured by WAKO), Paclitaxel (manufactured by WAKO) or Mitomycin C (manufactured by WAKO).
Successively, this plate was cultured by being stood still in a CO2 incubator (37°C, 5% CO2) for 7 days. After culturing for 3, 5, 7 days, to the culture medium was added a WST-8 solution (manufactured by DOJINDO Laboratories, 20 µL), and the mixture was incubated at 37°C for 100 min. The absorbance at 450 nm was measured by an absorbance spectrometer (manufactured by Molecular Devices, SPECTRA MAX 190), and the number of viable cells was measured by subtracting the absorbance of the medium alone. The culture medium containing the cells after 5 days of culture was stirred with a pipette and the obtained stirred solution (20 µL) was mixed with Trypan Blue stain 0.4% (manufactured by Invitrogen, 20 µL) and the cell density was measured under a microscope.

[6] = drug 0.03 µM, deacylated gellan gum addition group (0.015%)
[7] = drug 0.03 µM, single layer culture group
[8] = drug 0.3 µM, deacylated gellan gum addition group (0.015%)
[9] = drug 0.3 µM, single layer culture group
[10] = drug 3 µM, deacylated gellan gum addition group (0.015%)
[11] = drug 3 µM, single layer culture group
[12] = drug 30 µM, deacylated gellan gum addition group (0.015%)
[13] = drug 30 µM, single layer culture group
[14] = drug 0.001 µM, deacylated gellan gum addition group (0.015%)
[15] = drug 0.001 µM, single layer culture group
[16] = drug 0.003 µM, deacylated gellan gum addition group (0.015%)
[17] = drug 0.003 µM, single layer culture group
[18] = drug 0.01 µM, deacylated gellan gum addition group (0.015%)
[19] = drug 0.01 µM, single layer culture group
[20] = drug 0.1 µM, deacylated gellan gum addition group (0.015%)
[21] = drug 0.1 µM, single layer culture group
[22] = drug 1 µM, deacylated gellan gum addition group (0.015%)
[23] = drug 1 µM, single layer culture group

COc1cc2ncnc(Nc3ccc(F)c(Cl)c3)c2cc1OCCCN1CCOCC1 [Gefitinib]
% Control value of the RLU value (ATP measurement) ([1]; 0.1 µM, HB-EGF 100 ng/ml): 91 % Control
% Control value of the RLU value (ATP measurement) ([1]; 0.1 µM, HB-EGF no addition): 89 % Control
% Control value of the RLU value (ATP measurement) ([1]; 0.3 µM, HB-EGF 100 ng/ml): 74 % Control
% Control value of the RLU value (ATP measurement) ([1]; 0.3 µM, HB-EGF no addition): 84 % Control
% Control value of the RLU value (ATP measurement) ([1]; 1 µM, HB-EGF 100 ng/ml): 59 % Control
% Control value of the RLU value (ATP measurement) ([1]; 1 µM, HB-EGF no addition): 77 % Control
% Control value of the RLU value (ATP measurement) ([1]; 3 µM, HB-EGF 100 ng/ml): 53 % Control
% Control value of the RLU value (ATP measurement) ([1]; 3 µM, HB-EGF no addition): 69 % Control

NC1(c2ccc(-c3nc4ccn5c(=O)[nH]nc5c4cc3-c3ccccc3)cc2)CCC1 [MK-2206]
% Control value of the RLU value (ATP measurement) [2, 6]: 57 % Control
% Control value of the RLU value (ATP measurement) [2, 7]: 93 % Control
% Control value of the RLU value (ATP measurement) [2, 8]: 21 % Control
% Control value of the RLU value (ATP measurement) [2, 9]: 84 % Control
% Control value of the RLU value (ATP measurement) [2, 10]: 21 % Control
% Control value of the RLU value (ATP measurement) [2, 11]: 69 % Control
% Control value of the RLU value (ATP measurement) [2, 12]: 0 % Control
% Control value of the RLU value (ATP measurement) [2, 13]: 0 % Control
% Control value of the RLU value (ATP measurement) [3, 6]: 84 % Control
% Control value of the RLU value (ATP measurement) [3, 7]: 93 % Control
% Control value of the RLU value (ATP measurement) [3, 8]: 45 % Control
% Control value of the RLU value (ATP measurement) [3, 9]: 79 % Control
% Control value of the RLU value (ATP measurement) [3, 10]: 21 % Control
% Control value of the RLU value (ATP measurement) [3, 11]: 53 % Control
% Control value of the RLU value (ATP measurement) [3, 12]: 0 % Control
% Control value of the RLU value (ATP measurement) [3, 13]: 0 % Control

CC(=O)O[C@H]1C(=O)[C@@]2(C)[C@H]([C@H](OC(=O)c3ccccc3)[C@]3(O)C[C@H](OC(=O)[C@H](O)[C@@H](NC(=O)c4ccccc4)c4ccccc4)C(C)=C1C3(C)C)[C@]1(OC(C)=O)CO[C@@H]1C[C@@H]2O [Paclitaxel]
% Control value of the RLU value (ATP measurement) [4, 14]: 107 % Control
% Control value of the absorbance at 450 nm (WST-8 measurement) [4, 14]: 125 % Control
% Control value of the RLU value (ATP measurement) [4, 15]: 95 % Control
% Control value of the absorbance at 450 nm (WST-8 measurement) [4, 15]: 99 % Control
% Control value of the RLU value (ATP measurement) [4, 16]: 34 % Control
% Control value of the absorbance at 450 nm (WST-8 measurement) [4, 16]: 33 % Control
% Control value of the RLU value (ATP measurement) [4, 17]: 36 % Control
% Control value of the absorbance at 450 nm (WST-8 measurement) [4, 17]: 32 % Control
% Control value of the RLU value (ATP measurement) [4, 18]: 18 % Control
% Control value of the absorbance at 450 nm (WST-8 measurement) [4, 18]: 5 % Control
% Control value of the RLU value (ATP measurement) [4, 19]: 10 % Control
% Control value of the absorbance at 450 nm (WST-8 measurement) [4, 19]: 10 % Control
% Control value of the RLU value (ATP measurement) [4, 6]: 17 % Control
% Control value of the absorbance at 450 nm (WST-8 measurement) [4, 6]: 3 % Control
% Control value of the RLU value (ATP measurement) [4, 7]: 4 % Control
% Control value of the absorbance at 450 nm (WST-8 measurement) [4, 7]: 5 % Control
% Control value of the RLU value (ATP measurement) [2, 14]: 104 % Control
% Control value of the RLU value (ATP measurement) [2, 15]: 89 % Control
% Control value of the RLU value (ATP measurement) [2, 16]: 46 % Control
% Control value of the RLU value (ATP measurement) [2, 17]: 15 % Control
% Control value of the RLU value (ATP measurement) [2, 18]: 5 % Control
% Control value of the RLU value (ATP measurement) [2, 19]: 2 % Control
% Control value of the RLU value (ATP measurement) [3, 14]: 93 % Control
% Control value of the RLU value (ATP measurement) [3, 15]: 81 % Control
% Control value of the RLU value (ATP measurement) [3, 16]: 52 % Control
% Control value of the RLU value (ATP measurement) [3, 17]: 31 % Control
% Control value of the RLU value (ATP measurement) [3, 18]: 32 % Control
% Control value of the RLU value (ATP measurement) [3, 19]: 16 % Control
cell density ([5]; drug 0.001 µM): 5.3 10^4 cells/mL
cell number (absorbance at 450 nm, WST-8) ([5]; drug 0.001 µM, day 3): 0.276
cell number (absorbance at 450 nm, WST-8) ([5]; drug 0.001 µM, day 5): 0.223
cell number (absorbance at 450 nm, WST-8) ([5]; drug 0.001 µM, day 7): 0.222
cell density ([5]; drug 0.01 µM): 1.6 10^4 cells/mL
cell number (absorbance at 450 nm, WST-8) ([5]; drug 0.01 µM, day 3): 0.019
cell number (absorbance at 450 nm, WST-8) ([5]; drug 0.01 µM, day 5): < 0
cell number (absorbance at 450 nm, WST-8) ([5]; drug 0.01 µM, day 7): < 0
cell density ([5]; drug 0.1 µM): 0.9 10^4 cells/mL
cell number (absorbance at 450 nm, WST-8) ([5]; drug 0.1 µM, day 3): < 0
cell number (absorbance at 450 nm, WST-8) ([5]; drug 0.1 µM, day 5): < 0
cell number (absorbance at 450 nm, WST-8) ([5]; drug 0.1 µM, day 7): < 0
cell density ([5]; drug 1 µM): 0.2 10^4 cells/mL
cell number (absorbance at 450 nm, WST-8) ([5]; drug 1 µM, day 3): < 0
cell number (absorbance at 450 nm, WST-8) ([5]; drug 1 µM, day 5): < 0
cell number (absorbance at 450 nm, WST-8) ([5]; drug 1 µM, day 7): < 0

CC(=O)Nc1cccc(-n2c(=O)n(C3CC3)c(=O)c3c(Nc4ccc(I)cc4F)n(C)c(=O)c(C)c32)c1 [Trametinib]
% Control value of the RLU value (ATP measurement) [2, 14]: 73 % Control
% Control value of the RLU value (ATP measurement) [2, 15]: 102 % Control
% Control value of the RLU value (ATP measurement) [2, 18]: 12 % Control
% Control value of the RLU value (ATP measurement) [2, 19]: 93 % Control
% Control value of the RLU value (ATP measurement) [2, 20]: 1 % Control
% Control value of the RLU value (ATP measurement) [2, 21]: 20 % Control
% Control value of the RLU value (ATP measurement) [2, 22]: 1 % Control
% Control value of the RLU value (ATP measurement) [2, 23]: 3 % Control
% Control value of the RLU value (ATP measurement) [3, 14]: 72 % Control
% Control value of the RLU value (ATP measurement) [3, 15]: 71 % Control
% Control value of the RLU value (ATP measurement) [3, 18]: 35 % Control
% Control value of the RLU value (ATP measurement) [3, 19]: 37 % Control
% Control value of the RLU value (ATP measurement) [3, 20]: 2 % Control
% Control value of the RLU value (ATP measurement) [3, 21]: 5 % Control
% Control value of the RLU value (ATP measurement) [3, 22]: 0 % Control
% Control value of the RLU value (ATP measurement) [3, 23]: 1 % Control
